This assay has as its target CDK2/Cyclin E1 (Homo sapiens (Human), UniProt P24941). The assay is described as follows: CDK2/Cyclin E1 HTRF enzyme activity assay (Example A). It is filed as biochemical. The conditions noted are these: 1 mM ATP. On the procedure: Assays were conducted in white 384-well polystyrene plates in a final reaction volume of 8 μL. […] HTRF signals were read after 1 hour at room temperature on a PHERAstar FS plate reader (BMG Labtech). Data was analyzed with IDBS XLFit and GraphPad Prism 5.0 software using a three or four parameter dose response curve to determine IC50 for each compound.
(In TR-FRET formats the signal depends on donor and acceptor labels being close together.)
Broadly, the IC50 is the concentration needed to halve the response being measured. Low readings indicate higher potency, high ones lower potency. `CS(=O)(=O)N1CCC(Nc2ncc(C(F)(F)F)c(-c3cn(-c4cccc(CCNC5CC5)c4Cl)cn3)n2)CC1` [Example 371, 4-(1-(2-Chloro-3-(2-(cyclopropylamino)eth-yl)phenyl)-1H-imidazol-4-yl)-N-(1-(methylsulfonyl)piperidin-4-yl)-5-(trifluoromethyl)pyrimi-din-2-amine] returned an IC50 of at most 0.05 µM.

In turn, `CCS(=O)(=O)N1CCC(Nc2ncc(C(F)(F)F)c(-c3cn(CC(F)F)cn3)n2)CC1` [Example 328, 4-(1-(2,2-Difluoroethyl)-1H-imidazol-4-yl)-N-(1-(ethylsulfonyl)piperidin-4-yl)-5-(trifluoromethyl)pyrimidin-2-amine] showed an IC50 of at most 0.05 µM.

`CS(=O)(=O)N1CCC(Nc2ncc(C(F)(F)F)c(-c3cn(-c4ccc(CN5CC6(CC(O)C6)C5)cc4Cl)cn3)n2)CC1` [Example 202, 2-(3-Chloro-4-(4-(2-((1-(methylsulfonyl)-piperidin-4-yl)amino)-5-(trifluoromethyl)-pyrimidin-4-yl)-1H-imidazol-1-yl)benzyl)-2-azaspiro[3.3]heptan-6-ol]: the IC50 is at most 0.05 µM.

Compound `CN(C)C1CCN(c2ccc(-n3cnc(-c4nc(NC5CCN(S(C)(=O)=O)CC5)ncc4C(F)(F)F)c3)c(Cl)c2)C1` (centres unmarked) [Example 143, 4-(1-(2-Chloro-4-(3-(dimethylamino)-pyrrolidin-1-yl)-phenyl)-1H-imidazol-4-yl)-N-(1-(methylsulfonyl)-piperidin-4-yl)-5-(trifluoromethyl)-pyrimidin-2-amine] had an IC50 of at most 0.05 µM.

For `O=S(=O)(NC1CC1)N1CCC(Nc2ncc(C(F)(F)F)c(-c3cn(-c4ccc(CN5CCC5)cc4Cl)cn3)n2)CC1` [Example 230, 4-((4-(1-(4-(Azetidin-1-ylmethyl)-2-chlorophenyl)-1H-imidazol-4-yl)-5-(trifluoromethyl)pyrimidin-2-yl)amino)-N-cyclopropylpiperidine-1-sulfonamide], the 50% inhibitory concentration (IC50) was at most 0.05 µM.

As for `COc1ccc(-n2cnc(-c3nc(NC4CCN(S(C)(=O)=O)CC4)ncc3C(F)(F)F)c2)c(Cl)c1` [Example 151, 4-(1-(2-Chloro-4-methoxyphenyl)-1H-imidazol-4-yl)-N-(1-(methylsulfonyl)piperidin-4-yl)-5-(trifluoromethyl)pyrimidin-2-amine], the IC50 was at most 0.05 µM.

`CC(C)(O)C1CN(Cc2ccc(-n3cnc(-c4nc(NC5CCN(S(C)(=O)=O)CC5)ncc4C(F)(F)F)c3)c(Cl)c2)C1` [Example 203, 2-(1-(3-Chloro-4-(4-(2-((1-(methyl-sulfonyl)piperidin-4-yl)amino)-5-(trifluoromethyl)-pyrimidin-4-yl)-1H-imidazol-1-yl)-benzyl)azetidin-3-yl)propan-2-ol] returned an IC50 of at most 0.05 µM.

Consider `CS(=O)(=O)N1CC[C@H](Nc2ncc(C(F)(F)F)c(-c3cn(CC(F)F)cn3)n2)[C@H](F)C1` [Example 330, 4-(1-(2,2-Difluoroethyl)-1H-imidazol-4-yl)-N-((3R,4S)-3-fluoro-1-(methylsulfonyl)piperidin-4-yl)-5-(trifluoromethyl)pyrimidin-2-amine], for which the IC50 is at most 0.05 µM.

`C[C@@H]1CN(S(=O)(=O)C2CC2)CC[C@@H]1Nc1ncc(C(F)(F)F)c(-c2cn(-c3ccc(CN(C)C)cc3Cl)cn2)n1` [Example 222, 4-(1-(2-Chloro-4-((dimethylamino)-methyl)phenyl)-1H-imidazol-4-yl)-N-((3R,4S)-1-(cyclo-propylsulfonyl)-3-methylpiperidin-4-yl)-5-(trifluoro-methyl)pyrimidin-2-amine] registered an IC50 of at most 0.05 µM.

As to `CS(=O)(=O)N1CCC(Nc2ncc(C(F)(F)F)c(-c3cn(-c4ccccc4Br)cn3)n2)CC1` [Example 442, 4-(1-(2-Bromophenyl)-1H-imidazol-4-yl)-N-(1-(methylsulfonyl)piperidin-4-yl)-5-(trifluoromethyl)pyrimidin-2-amine], the IC50 was at most 0.05 µM.

`COCCNc1ccc(-n2cnc(-c3nc(NC4CCN(S(C)(=O)=O)CC4)ncc3C(F)(F)F)c2)c(Cl)c1` [Example 144, 4-(1-(2-Chloro-4-((2-methoxyethyl)-amino)phenyl)-1H-imidazol-4-yl)-N-(1-(methylsulfonyl)-piperidin-4-yl)-5-(trifluoromethyl)-pyrimidin-2-amine] yielded an IC50 of at most 0.05 µM.

In turn, `Cc1nc(-c2nc(NC3CCN(S(C)(=O)=O)CC3)ncc2C(F)(F)F)cn1-c1ccc(OC[C@H]2CCCN2C)cc1F` [Example 426, (R)-4-(1-(2-Fluoro-4-((1-methylpyrrolidin-2-yl)methoxy)phenyl)-2-methyl-1H-imidazol-4-yl)-N-(1-(methylsulfonyl)piperidin-4-yl)-5-(trifluoromethyl)pyrimidin-2-amine] had an IC50 of at most 0.05 µM.

On to `CS(=O)(=O)N1CCC(Nc2ncc(C(F)(F)F)c(-c3cn(-c4ccc(CN5C6CCC5COC6)cc4Cl)cn3)n2)CC1` [Example 215, 4-(1-(4-((3-Oxa-8-azabicyclo[3.2.1]-octan-8-yl)methyl)-2-chlorophenyl)-1H-imidazol-4-yl)-N-(1-(methylsulfonyl)-piperidin-4-yl)-5-(trifluoromethyl)-pyrimidin-2-amine], for which the IC50 is at most 0.05 µM.

Compound `CS(=O)(=O)N1CCC(Nc2ncc(C(F)(F)F)c(-c3cn(-c4ccc(CN5CC(O)C5)cc4C(F)(F)F)cn3)n2)CC1` [Example 259, 1-(4-(4-(2-((1-(Methylsulfonyl)piperidin-4-yl)amino)-5-(trifluoromethyl)pyrimidin-4-yl)-1H-imidazol-1-yl)-3-(trifluoromethyl)benzyl) azetidin-3-ol] had an IC50 of at most 0.05 µM.

Compound `CNCc1ccc(-n2cnc(-c3nc(NC4CCN(S(C)(=O)=O)CC4)ncc3C(F)(F)F)c2)c(C)c1` [Example 272, 4-(1-(2-Methyl-4-((methylamino)methyl)phenyl)-1H-imidazol-4-yl)-N-(1-(methylsulfonyl)piperidin-4-yl)-5-(trifluoromethyl)pyrimidin-2-amine] showed an IC50 of at most 0.05 µM.

The compound `N#Cc1cccc(-n2cnc(-c3nc(NC4CCN(S(=O)(=O)C5CC5)CC4)ncc3C(F)(F)F)c2)c1C(F)(F)F` [Example 92, 3-(4-(2-((1-(Cyclopropylsulfonyl)piperidin-4-yl)amino)-5-(trifluoromethyl)pyrimidin-4-yl)-1H-imidazol-1-yl)-2-(trifluoromethyl) benzonitrile] returned an IC50 of at most 0.05 µM.

`CNCc1ccc(-n2cc(-c3nc(NC4CCN(S(C)(=O)=O)CC4)ncc3C#N)nc2C)c(Cl)c1` [Example 289, 4-(1-(2-Chloro-4-((methylamino)methyl)phenyl)-2-methyl-1H-imidazol-4-yl)-2-((1-(methylsulfonyl)piperidin-4-yl)amino)pyrimidine-5-carbonitrile] gave an IC50 of at most 0.05 µM.

Compound `Cc1c(C#N)cccc1-n1cnc(-c2nc(N[C@H]3CCN(S(C)(=O)=O)C[C@H]3F)ncc2C(F)(F)F)c1` [Example 42, 3-(4-(2-(((3R,4S)-3-Fluoro-1-(methylsulfonyl)piperidin-4-yl)amino)-5-(trifluoromethyl)pyrimidin-4-yl)-1H-imidazol-1-yl)-2-methylbenzonitrile] yielded an IC50 of at most 0.05 µM.

As to `CC(C)NCc1ccc(-n2cnc(-c3nc(NC4CCN(S(C)(=O)=O)CC4)ncc3C(F)(F)F)c2)c(C#N)c1` [Example 340, 5-((Isopropylamino)methyl)-2-(4-(2-((1-(methylsulfonyl)piperidin-4-yl)amino)-5-(trifluoromethyl)pyrimidin-4-yl)-1H-imidazol-1-yl)benzonitrile], the IC50 is at most 0.05 µM.

On to `CC1CN(Cc2ccc(-n3cnc(-c4nc(N[C@H]5CCN(S(C)(=O)=O)C[C@H]5F)ncc4C(F)(F)F)c3)c(Cl)c2)C1` [Example 224, 4-(1-(2-Chloro-4-((3-methylazetidin-1-yl)methyl)phenyl)-1H-imidazol-4-yl)-N-((3R,4S)-3-fluoro-1-(methylsulfonyl)-piperidin-4-yl)-5-(trifluoromethyl)-pyrimidin-2-amine], for which the IC50 was at most 0.05 µM.

`CS(=O)(=O)N1CCC(Nc2ncc(C(F)(F)F)c(-c3cn(-c4ccc(CNC5CC5)cc4C(F)(F)F)cn3)n2)CC1` [Example 256] came in with an IC50 of at most 0.05 µM.

`Cc1nc(CN2CC(C)C2)ccc1-n1cnc(-c2nc(NC3CCN(S(C)(=O)=O)CC3)ncc2C(F)(F)F)c1` [Example 264, 4-(1-(2-Methyl-6-((3-methylazetidin-1-yl)methyl)pyridin-3-yl)-1H-imidazol-4-yl)-N-(1-(methylsulfonyl)piperidin-4-yl)-5-(trifluoromethyl)pyrimidin-2-amine] had an IC50 of at most 0.05 µM.

As for `CN(C)CCNc1ccc(-n2cnc(-c3nc(NC4CCN(S(C)(=O)=O)CC4)ncc3C(F)(F)F)c2)c(C#N)c1` [Example 432, 5-((2-(Dimethylamino)ethyl)amino)-2-(4-(2-((1-(methylsulfonyl)piperidin-4-yl)amino)-5-(trifluoromethyl)pyrimidin-4-yl)-1H-imidazol-1-yl)benzonitrile], the IC50 was at most 0.05 µM.

In the case of `[2H]C([2H])([2H])NCc1cccc(-n2cnc(-c3nc(NC4CCN(S(C)(=O)=O)CC4)ncc3C(F)(F)F)c2)c1Cl` [Example 462, 4-(1-(2-Chloro-3-(((methyl-d3)amino)methyl)phenyl)-1H-imidazol-4-yl)-N-(1-(methylsulfonyl)piperidin-4-yl)-5-(trifluoromethyl)pyrimidin-2-amine], the IC50 was at most 0.05 µM.

`CCNCc1ccc(-n2cnc(-c3nc(NC4CCN(S(C)(=O)=O)CC4)ncc3C(F)(F)F)c2)c(C#N)c1` [Example 341, 5-((Ethylamino)methyl)-2-(4-(2-((1-(methylsulfonyl)piperidin-yl)amino)-5-(trifluoromethyl)pyrimidin-4-yl)-1H-imidazol-1-yl)benzonitrile] had an IC50 of at most 0.05 µM.

In the case of `CC(C)NCc1cc(F)c(-n2cnc(-c3nc(N[C@H]4CCN(S(C)(=O)=O)C[C@H]4F)ncc3C(F)(F)F)c2)c(F)c1` [Example 386, 4-(1-(2,6-Difluoro-4-((isopropylamino)methyl)phenyl)-1H-imidazol-4-yl)-N-((3R,4S)-3-fluoro-1-(methylsulfonyl)piperidin-4-yl)-5-(trifluoromethyl)pyrimidin-2-amine], the IC50 was at most 0.05 µM.

(Values after US11427567B2, “Imidazolyl pyrimidinylamine compounds as CDK2 inhibitors” (Incyte Corporation, priority 2019, dated 2022).)
